This assay concerns Saccharomyces cerevisiae. The assay is described as follows: DNA damaging activity against Sc-7 yeast assessed as drug level required to produce 12 mm zone of inhibition. It counts as functional.

IC12 data for 2 molecules are collected here from ChEMBL document CHEMBL1150920, “Three new ellagic acid derivatives from the bark of Eschweilera coriacea from the Suriname rainforest” (1998).

`C[C@@H]1O[C@@H](Oc2cc3c(=O)oc4c(O)c(O)cc5c(=O)oc(c2O)c3c45)[C@H](O)[C@H](O)[C@H]1O` [ESCHWEILENOL C]: the IC12 is 2000 µg/mL.

On to `O=c1oc2c(O)c(Oc3ccc(O)c(O)c3O)cc3c(=O)oc4c(O)c(O)cc1c4c23` [ESCHWEILENOL A], for which the IC12 stood at 1000 µg/mL.
